This assay addresses human PD-L1 (Homo sapiens (Human), UniProt Q9NZQ7). Briefly: T cell activation luciferase reporter cell culture system (T Cell Activation Assay). It is filed as cell-based. Particulars: luciferase reporter assay; PD-L1 aAPC/CHO-K1 cells with PD-1 effector Jurkat T cells. Background: Reporter assays use an easily measured gene product as a stand-in for the process of interest.

One may read the EC50 as the concentration that produces a half-maximal response. A low value points to higher potency in that assay.

Chain of human PD-L1 (Q9NZQ7 19-290): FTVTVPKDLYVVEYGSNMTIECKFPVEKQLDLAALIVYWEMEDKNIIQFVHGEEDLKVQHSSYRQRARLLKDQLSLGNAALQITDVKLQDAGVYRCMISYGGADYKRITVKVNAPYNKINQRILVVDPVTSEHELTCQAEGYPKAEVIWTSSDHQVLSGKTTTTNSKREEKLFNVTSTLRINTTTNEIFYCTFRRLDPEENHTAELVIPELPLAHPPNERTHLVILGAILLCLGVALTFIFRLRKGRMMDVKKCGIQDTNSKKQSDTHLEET

Take `COc1cc(-c2nccc(-c3cccc(-c4ccc(CN5CC6(CCNC6=O)C5)c(OC)n4)c3Cl)c2Cl)ccc1CNC1CCN(C(C)=O)CC1` [Example 525, 2-((6-(3-(2-(4-(((1-Acetylpiperidin-4-yl)amino)methyl)-3-methoxyphenyl)-3-chloropyridin-4-yl)-2-chlorophenyl)-2-methoxypyridin-3-yl)methyl)-2,6-diazaspiro[3.4] octan-5-one]: the EC50 was 56.7 nM. In turn, `COc1cc(-c2nccc(-c3cccc(-c4ccc(CN5CC6(CNC(=O)N6)C5)c(OC)n4)c3Cl)c2Cl)ccc1CNC1CCN(C(C)=O)CC1` [Example 526, 2-((6-(3-(2-(4-(((1-Acetylpiperidin-4-yl)amino)methyl)-3-methoxyphenyl)-3-chloropyridin-4-yl)-2-chlorophenyl)-2-methoxypyridin-3-yl)methyl)-2,5,7-triazaspiro[3.4]octan-6-one] yielded a half-maximal effective concentration (EC50) of 30.3 nM.

In turn, `COc1nc(-c2ccnc(-c3cccc4c3CC[C@@H]4Oc3nc(OC)c(CNC4CCN(C(C)=O)CC4)cc3C(F)(F)F)c2Cl)ccc1CNC[C@@H]1CCC(=O)N1` [Example 527, (S)-5-((((2′-((S)-1-((5-(((1-acetylpiperidin-4-yl)amino)methyl)-6-methoxy-3-(trifluoromethyl)pyridin-2-yl)oxy)-2,3-dihydro-1H-inden-4-yl)-3′-chloro-6-methoxy-[2,4′-bipyridin]-5-yl)methyl)amino)methyl)pyrrolidin-2-one] showed a concentration for a half-maximal effect (EC50) of 14.4 nM. Turning to `COc1cc(-c2nccc(-c3cccc(-c4ccc(CNC5CCN(C(C)=O)CC5)c(OC)n4)c3C(F)(F)F)c2Cl)ccc1CNC1CCN(C(C)=O)CC1` [Example 528, 1-(4-(((6-(3-(2-(4-(((1-Acetylpiperidin-4-yl)amino)methyl)-3-methoxyphenyl)-3-chloropyridin-4-yl)-2-(trifluoromethyl)phenyl)-2-methoxypyridin-3-yl)methyl)amino)piperidin-1-yl)ethan-1-one], the EC50 is not below 10000 nM. `COc1cc(-c2nccc(-c3cccc(-c4ccc(CN5CC6(CCOCC6)C5)c(OC)n4)c3Cl)c2Cl)ccc1CNC1CCOCC1` [Example 531, N-(4-(4-(3-(5-((7-oxa-2-azaspiro[3.5]nonan-2-yl)methyl)-6-methoxypyridin-2-yl)-2-chlorophenyl)-3-chloropyridin-2-yl)-2-methoxybenzyl)tetrahydro-2H-pyran-4-amine] yielded an EC50 of 41.3 nM.

Take `COc1nc(N[C@H]2CCc3c(-c4nccc(-c5ccc6c(CNC[C@@H]7CCC(=O)N7)cn(C)c6n5)c4Cl)cccc32)c(C(F)(F)F)nc1CNC[C@@H]1CCC(=O)N1` [Example 532, (S)-5-((((6-(3-Chloro-2-((S)-1-((6-methoxy-5-(((((S)-5-oxopyrrolidin-2-yl)methyl)amino)methyl)-3-(trifluoromethyl)pyrazin-2-yl)amino)-2,3-dihydro-1H-inden-4-yl)pyridin-4-yl)-1-methyl-1H-pyrrolo[2,3-b]pyridin-3-yl)methyl)amino)methyl)pyrrolidin-2-one]: the midpoint of the response, the EC50, lay at 143 nM. `COc1cc(-c2nccc(-c3cccc(-c4ccc(CNC5CCN(C(=O)CO)CC5)c(OC)n4)c3Cl)c2Cl)ccc1CNC1CCN(C(C)=O)CC1` [Example 533, 1-(4-(((6-(3-(2-(4-(((1-Acetylpiperidin-4-yl)amino)methyl)-3-methoxyphenyl)-3-chloropyridin-4-yl)-2-chlorophenyl)-2-methoxypyridin-3-yl)methyl)amino)piperidin-1-yl)-2-hydroxyethan-1-one] yielded an EC50 of 13.5 nM.

Turning to `COc1cc(-c2nccc(-c3cccc(-c4ccc(CNCCCF)c(OC)n4)c3Cl)c2Cl)ccc1CNCCCF` [Example 534, N-((6-(2-Chloro-3-(3-chloro-2-(4-(((3-fluoropropyl)amino)methyl)-3-methoxyphenyl)pyridin-4-yl)phenyl)-2-methoxypyridin-3-yl)methyl)-3-fluoropropan-1-amine], the 50% effective concentration (EC50) is 56.7 nM. With `COc1cc(-c2ncnc(-c3cccc(-c4ccc(CN5CC6(CNC(=O)C6)C5)c(OC)n4)c3Cl)c2C)ccc1CN1CC2(CNC(=O)C2)C1` [Example 535, 2-((6-(2-Chloro-3-(6-(3-methoxy-4-((7-oxo-2,6-diazaspiro[3.4]octan-2-yl)methyl)phenyl)-5-methylpyrimidin-4-yl)phenyl)-2-methoxypyridin-3-yl)methyl)-2,6-diazaspiro[3.4]octan-7-one], a half-maximal response (EC50) required 1060 nM. For the compound `COc1cc(-c2nccc(-c3cccc(-c4ccc(CNC5CCN(C(C)=O)CC5)c(OC)n4)c3Cl)c2Cl)ccc1CNCCCF` [Example 537, 1-(4-(((6-(2-Chloro-3-(3-chloro-2-(4-(((3-fluoropropyl)amino)methyl)-3-methoxyphenyl)pyridin-4-yl)phenyl)-2-methoxypyridin-3-yl)methyl)amino)piperidin-1-yl)ethan-1-one], the EC50 amounted to 41.6 nM. In turn, `COc1cc(-c2nccc(-c3cccc(-c4ccc(CNC5CCN(C(=O)CO)CC5)c(OC)n4)c3Cl)c2Cl)ccc1CN[C@H]1CC[C@H](O)CC1` [Example 539, 1-(4-(((6-(2-Chloro-3-(3-chloro-2-(4-((((1r,4r)-4-hydroxycyclohexyl)amino)methyl)-3-methoxyphenyl)pyridin-4-yl)phenyl)-2-methoxypyridin-3-yl)methyl)amino)piperidin-1-yl)-2-hydroxyethan-1-one] showed an EC50 of 31.8 nM. In turn, `COc1nc(O[C@H]2CCc3c(-c4nccc(-c5ccc6c(CNC[C@@H]7CCC(=O)N7)cn(C)c6n5)c4Cl)cccc32)c(C(F)(F)F)cc1CNC[C@@H]1CCC(=O)N1` [Example 545, (S)-5-((((6-(3-Chloro-2-((S)-1-((6-methoxy-5-(((((S)-5-oxopyrrolidin-2-yl)methyl)amino)methyl)-3-(trifluoromethyl)pyridin-2-yl)oxy)-2,3-dihydro-1H-inden-4-yl)pyridin-4-yl)-1-methyl-1H-pyrrolo[2,3-b]pyridin-3-yl)methyl)amino)methyl)pyrrolidin-2-one] gave an EC50 of 21.3 nM. Under `COc1nc(-c2ccnc(-c3cccc4c3CC[C@@H]4Oc3nc(OC)c(CNC[C@H](C)O)cc3C(F)(F)F)c2Cl)ccc1CN1CC2(CNC(=O)C2)C1` [Example 553, 2-((3′-Chloro-2′-((S)-1-((5-((((S)-2-hydroxypropyl)amino)methyl)-6-methoxy-3-(trifluoromethyl)pyridin-2-yl)oxy)-2,3-dihydro-1H-inden-4-yl)-6-methoxy-[2,4′-bipyridin]-5-yl)methyl)-2,6-diazaspiro[3.4]octan-7-one] stands 53 nM; under `COc1cc(-c2ncnc(-c3cccc(-c4ccc(CN5CC6(CNC(=O)C6)C5)c(OC)n4)c3Cl)c2Cl)ccc1CN1CC2(CNC(=O)C2)C1` [Example 554, 2-((6-(2-chloro-3-(5-chloro-6-(3-methoxy-4-((7-oxo-2,6-diazaspiro[3.4]octan-2-yl)methyl)phenyl)pyrimidin-4-yl)phenyl)-2-methoxypyridin-3-yl)methyl)-2,6-diazaspiro[3.4]octan-7-one], 103 nM. The value for `COc1cc(-c2nccc(-c3cccc(-c4ccc5c(CNCC6CCOCC6)cn(C)c5n4)c3Cl)c2Cl)ccc1CNC1CCN(C(C)=O)CC1` [Example 557, 1-(4-((4-(3-chloro-4-(2-chloro-3-(1-methyl-3-((((tetrahydro-2H-pyran-4-yl)methyl)amino)methyl)-1H-pyrrolo[2,3-b]pyridin-6-yl)phenyl)pyridin-2-yl)-2-methoxybenzyl)amino)piperidin-1-yl)ethan-1-one] was 378 nM.

The values are drawn from patent publication US20240246964A1 (Arbutus Biopharma Corporation, priority 2021, published 2024).
